Patent US4168313A, “Phthalidyl 2-(3'-trifluoromethyl-anilino)-pyridine-3-carboxylate and its salts” (priority 1978, dated 1979)

Experiments:
[1] = test system: gastric epithelium; assay: method of Goldemberg, ulceration by pylorus ligature (ulcerogenic effect); type: in vivo, Sprague-Dowley rats; conditions: for ulceration score Increase: increase over control (distilled water) score 2.0, mg/Kg: phenylbutazone 75, acid 47, acetylsalicylic acid 200; for ulceration Score: score 0=no hemorrhagic spots to 6=perforated ulcer, control (distilled water) 2.0, mg/Kg: phenylbutazone 75, acid 47, acetylsalicylic acid 200, phthalidyl ester 69; for ulcerogenic effect (in words): summary statement, b45 relative to the respective acid
Method: 2 To compare the effect on ulcer of the new compound regarding to other antiinflammatory drugs, the method of Goldemberg (ulceration by pylorus ligature) (Arzneim. Forsch. (Drug Res.) 26, 3, 1976) to Sprague-Dowley rats (400-600 g of weight), was performed. The ulceration of the gastric epithelium was observed and evaluated in accordance to the following score; 0=no hemorrhagic spots; 1=some isolated hemorrhagic spots; 2=redness of the gastric epithelium; 3=1 to 5 small ulcers with a diameter greater than 3 mm; 6=perforated ulcer.

[2] = oral tolerability; type: in vivo
[3] = test system: carraghenine-provoked aedema of the paw of rat; assay: carraghenine-provoked aedema of the paw of rat (antiinflammatory activity); type: in vivo; conditions: for % AEDEMA INHIBITION 3 hr / % AEDEMA INHIBITION 4 hr: rat paw, TNA 47 mg/Kg, PTP 69 mg/Kg (equivalent to 47 mg of the acid)
From the text: 1 By means of the test involving the carraghenine-provoked aedema of the paw of rat (Winter, C. A., Proceeding Soc. Exp. Biol. Med., III, 544, 1962) the antiinflammatory activities of phthalidyl 2-(3'-trifluormethylanilino)-pyridine-3-carboxylate (PTP) and 2(3'-trifluormethylanilino) nicotinic acid (TNA), were compared.

[4] = background statement; cited from earlier work
[5] = background statement; cited from earlier work; remark: listed apart in the source

Row | Structure (SMILES) | ulceration score Increase [1] | ulceration Score [1] | oral tolerability (in words) [2] | ulcerogenic effect (in words) [1] | ulcerogenic effect (in words) ([1]; listed as phthalidyl ester) | % AEDEMA INHIBITION 3 hr [3] [%] | % AEDEMA INHIBITION 4 hr [3] [%] | antiinflammatory activity compared with the acid (in words) ([3]; relative to 2(3'-trifluormethylanilino) pyridine-3-carboxylic acid) | anti-inflammatory activity (in words) ([3]; summary statement) | ulcer provocation (in words) [4] | antiinflammatory activity (in words) [5]
1 | CC(=O)Oc1ccccc1C(=O)O [Acetylsalicylic acid] | 1.9 | 3.9 |  |  |  |  |  |  |  |  | 
2 | O=C1OC(OC(=O)c2cccnc2Nc2cccc(C(F)(F)F)c2)c2ccccc21 (stereo not drawn) [PTP, phthalidyl 2-(3'-trifluormethylanilino)-pyridine-3-carboxylate] |  | 2.0 | orally well tolerated | less ulcerogenic than respective acid | without ulcerogenic effect | 32 | 37.8 | antiinflammatory activity greater than the acid | anti-inflammatory activity |  | 
3 | CCCCC1C(=O)N(c2ccccc2)N(c2ccccc2)C1=O [Phenylbutazone] | 2.3 | 4.3 |  |  |  |  |  |  |  |  | 
4 | O=C(O)c1cccnc1Nc1cccc(C(F)(F)F)c1 [TNA, 2(3'-trifluormethylanilino) nicotinic acid] | 1.3 | 3.3 |  |  |  | 25.6 | 31.8 |  |  | provoke ulcers | relevant antiinflammatory activity
